In article PMC6950057, “Toxicity, Pharmacokinetics, and Gut Microbiome of Oral Administration of Sesterterpene MHO7 Derived from a Marine Fungus” (Marine Drugs, 2019):

Test system: gut microbiota
Assay: Gut (cecal) microbiota analysis by 16S rRNA sequencing
Format: in vivo, mice
Details: for amount of OTUs vs control: p < 0.001; for gut community richness (Sobs index) vs control: p < 0.01
Description: Fresh cecal samples from 24 (n = 6 per group) mice were collected at 1, 8 and 30 h after oral administration of 500 mg·kg^−1 MHO7 meanwhile control group was collected at 8 h after oral the same volume corn oil, respectively. All of the cecal samples were collected in sterile environments and containers, snap-frozen in liquid nitrogen, and then stored at −80 °C.
Microbial DNA was extracted from 24 cecal samples using the E.Z.N.A.® soil DNA Kit (Omega Bio-tek, Norcross, GA, USA) according to manufacturer’s protocols. The final DNA concentration and purification were determined by NanoDrop 2000 UV-vis spectrophotometer (Thermo Scientific, Wilmington, DE, USA), and DNA quality was checked by 1% agarose gel electrophoresis. The V3-V4 hypervariable regions of the bacteria 16S rRNA gene were amplified with primers 338F (5’- […]-3’) and 806R (5’-[…]-3’) by thermocycler PCR system (GeneAmp 9700, ABI, Foster City, CA, USA). The PCR reactions were conducted using the following program: 3 min of denaturation at 95 °C; 27 cycles of 30 s at 95 °C, 30 s for annealing at 55 °C, and 45 s for elongation at 72 °C; and a final extension at 72 °C for 10 min. PCR reactions were performed in triplicate 20 μL mixture containing 4 μL of 5 × FastPfu Buffer, 2 μL of 2.5 mM·L^−1 dNTPs, 0.8 μL of each primer (5 μM·L^−1), 0.4 μL of FastPfu Polymerase, and 10 ng of template DNA. The resulted PCR products were extracted from a 2% agarose gel and further purified using the AxyPrep DNA Gel Extraction Kit (Axygen Biosciences, Union City, CA, USA) and quantified using QuantiFluor ™ -ST (Promega, Madison, […], USA) according to the manufacturer’s protocol.
Purified amplicons were pooled in equimolar and paired-end sequenced (2 × 300) on an Illumina MiSeq platform (Illumina, San Diego, CA, USA) according to the standard protocols by Majorbio Bio-Pharm Technology Co. Ltd. (Shanghai, China).
Raw fastq files were quality-filtered by Trimmomatic and merged by FLASH according to the following criteria: (i) The reads were truncated at any site receiving an average quality score < 20 over a 50 bp sliding window. (ii) Sequences whose overlap was longer than 10 bp were merged according to their overlap with mismatch no more than 2 bp. (iii) Sequences of each sample were separated according to barcodes (exactly matching) and Primers (allowing 2 nucleotide mismatching), and reads containing ambiguous bases were removed. Operational taxonomic units (OTUs) were clustered using UPARSE (version 7.1, http://drive5.com/uparse/) at a 97% similarity level with a novel “greedy” algorithm that performs chimera filtering and OTU clustering simultaneously. The taxonomy of each 16S rRNA gene sequence was analyzed by RDP Classifier algorithm (http://rdp.cme.msu.edu/) against the Silva (SSU123) 16S rRNA database using confidence threshold of 70%.

[1] = MHO7-1h group, cecal, oral 500 mg·kg^−1
[2] = MHO7-8h group, cecal, oral 500 mg·kg^−1
[3] = MHO7-30h group, cecal, oral 500 mg·kg^−1

## CC(C)=C/C=C/[C@H](C)[C@H]1CC[C@]2(C)C[C@@H]3C(C)=CC(=O)[C@H]3/C(C=O)=C\C[C@@H]12 [MHO7, 6-epi-ophiobolin G]
MHO7-1 h group
  richness, diversity, OTU number of gut microbiome vs control: no significant difference
[1]
  Relative abundance, class Bacilli: 10.08±7.69%
  Relative abundance, class Clostridia: 38.58 ± 11.1%
  Relative abundance, class Mollicutes: 0.46±0.25%
  Relative abundance, class Verrucomicrobiae: 0.0019±0.002%
  Relative abundance, family Bacteroidales_S24-7_group: 33.99±6.67%
  Relative abundance, family Lachnospiraceae: 27.23±10.42%
  Relative abundance, family Lactobacillaceae: 10.05±7.69%
  Relative abundance, family Rikenellaceae: 7.09±0.86%
  Relative abundance, family Ruminococcaceae: 10.04±1.97%
  Relative abundance, family Verrucomicrobiaceae: 0.0019±0.0021%
  Relative abundance, genus Anaeroplasma: 0.12±0.11%
  Relative abundance, genus Coprococcus_1: 0.19±0.10%
  Relative abundance, genus Family_XIII_AD3011_group: 0.067±0.041%
  Relative abundance, genus Lachnoclostridium: 0.51±0.21%
  Relative abundance, genus Lactobacillus: 10.05±7.69%
  Relative abundance, genus Papillibacter: 0.0062±0.0066%
  Relative abundance, genus Peptococcus: 0.010±0.0061%
  Relative abundance, genus Prevotellaceae_NK3B31_group: 0.46±0.31%
  Relative abundance, genus Prevotellaceae_UCG-001: 0.78±0.51%
  Relative abundance, genus Rikenellaceae_RC9_gut_group: 2.82±0.76%
  Relative abundance, genus Ruminiclostridium: 0.78±0.59%
  Relative abundance, genus Ruminiclostridium_5: 0.34±0.14%
  Relative abundance, genus Ruminiclostridium_9: 0.76±0.29%
  Relative abundance, genus Ruminococcaceae_NK4A214_group: 0.076±0.024%
  Relative abundance, genus Ruminococcaceae_UCG-009: 0.066±0.050%
  Relative abundance, genus Ruminococcaceae_UCG-010: 0.12±0.046%
  Relative abundance, genus Ruminococcaceae_UCG-014: 2.73±0.93%
  Relative abundance, genus Ruminococcus_1: 1.53±1.04%
  Relative abundance, genus Streptococcus: 0.023±0.0050%
  Relative abundance, genus [Eubacterium]_coprostanoligenes_group: 0.13±0.12%
  Relative abundance, genus [Eubacterium]_ventriosum_group: 0.13±0.089%
  Relative abundance, genus g__norank_f__Bacteroidales_S24-7_group: 33.99±6.67%
  Relative abundance, genus g__norank_f__Christensenellaceae: 0.034±0.014%
  Relative abundance, genus g__norank_f__Lachnospiraceae: 6.456±2.68%
  Relative abundance, genus g__norank_f__Ruminococcaceae: 0.31±0.22%
  Relative abundance, genus norank_o__Mollicutes_RF9: 0.34±0.17%
  Relative abundance, order Anaeroplasmatales: 0.12±0.11%
  Relative abundance, order Bacillales: 0.0000%
  Relative abundance, order Clostridiales: 38.54±11.15%
  Relative abundance, order Lactobacillales: 10.10±7.65%
  Relative abundance, order Mollicutes_RF9: 0.33±0.16%
  Relative abundance, order Verrucomicrobiales: 0.0022±0.0027%
  Relative abundance, phylum Deferribacteres: 0.14±0.12%
  Relative abundance, phylum Proteobacteria: 0.18±0.045%
  Relative abundance, phylum Saccharibacteria: 0.47±0.28%
  Relative abundance, phylum Tenericutes: 0.46±0.25%
MHO7-8 h group, OTU level, p < 0.05
  gut community diversity (Shannon index) vs control: decreased significantly
MHO7-8 h group
  amount of OTUs vs control: remarkable reduction
  gut community richness (Sobs index) vs control: remarkable reduction
[2]
  Relative abundance, class Bacilli: 11.49±12.09%
  Relative abundance, class Clostridia: 28.98 ± 20.11%
  Relative abundance, class Mollicutes: 0.0075±0.0048%
  Relative abundance, class Verrucomicrobiae: 0.80±1.18%
  Relative abundance, family Bacteroidales_S24-7_group: 33.65±5.47%
  Relative abundance, family Lachnospiraceae: 21.66±15.88%
  Relative abundance, family Lactobacillaceae: 11.34±12.11%
  Relative abundance, family Rikenellaceae: 3.66±2.13%
  Relative abundance, family Ruminococcaceae: 6.20±4.57%
  Relative abundance, family Verrucomicrobiaceae: 0.80±1.18%
  Relative abundance, genus Coprococcus_1: 0.21±0.17%
  Relative abundance, genus Family_XIII_AD3011_group: 0.0069±0.0077%
  Relative abundance, genus Lachnoclostridium: 0.81±0.61%
  Relative abundance, genus Lactobacillus: 11.34±12.11%
  Relative abundance, genus Papillibacter: 0.0025±0.0061%
  Relative abundance, genus Peptococcus: 0.0050±0.010%
  Relative abundance, genus Prevotellaceae_NK3B31_group: 2.54±2.44%
  Relative abundance, genus Prevotellaceae_UCG-001: 4.09±3.41%
  Relative abundance, genus Rikenellaceae_RC9_gut_group: 0.088±0.089%
  Relative abundance, genus Ruminiclostridium: 0.36±0.31%
  Relative abundance, genus Ruminiclostridium_5: 0.21±0.21%
  Relative abundance, genus Ruminiclostridium_9: 0.60±0.59%
  Relative abundance, genus Ruminococcaceae_NK4A214_group: 0.023±0.021%
  Relative abundance, genus Ruminococcaceae_UCG-009: 0.063±0.072%
  Relative abundance, genus Ruminococcaceae_UCG-010: 0.036±0.042%
  Relative abundance, genus Ruminococcaceae_UCG-014: 0.19±0.25%
  Relative abundance, genus Ruminococcus_1: 0.38±0.32%
  Relative abundance, genus Staphylococcus: 0.066±0.060%
  Relative abundance, genus Streptococcus: 0.029±0.016%
  Relative abundance, genus Sutterella: 0.0069±0.010%
  Relative abundance, genus [Eubacterium]_coprostanoligenes_group: 0.22±0.23%
  Relative abundance, genus [Eubacterium]_ventriosum_group: 0.012±0.020%
  Relative abundance, genus g__norank_f__Bacteroidales_S24-7_group: 33.65±5.47%
  Relative abundance, genus g__norank_f__Christensenellaceae: 0.011±0.0079%
  Relative abundance, genus g__norank_f__Lachnospiraceae: 7.54±4.66%
  Relative abundance, genus g__norank_f__Ruminococcaceae: 0.31±0.26%
  Relative abundance, genus norank_o__Mollicutes_RF9: 0.0075±0.0047%
  Relative abundance, order Anaeroplasmatales: 0.00028±0.00068%
  Relative abundance, order Bacillales: 0.071±0.067%
  Relative abundance, order Clostridiales: 28.89±20.03%
  Relative abundance, order Lactobacillales: 11.34±12.02%
  Relative abundance, order Mollicutes_RF9: 0.0057±0.0040%
  Relative abundance, order Verrucomicrobiales: 0.78±1.15%
  Relative abundance, phylum Deferribacteres: 0.0044±0.0050%
  Relative abundance, phylum Proteobacteria: 2.05±1.47%
  Relative abundance, phylum Saccharibacteria: 0.35±0.61%
  Relative abundance, phylum Tenericutes: 0.0075±0.0047%
MHO7-30 h group
  amount of OTUs vs control: remarkable reduction
  gut community richness (Sobs index) vs control: remarkable reduction
[3]
  Relative abundance, class Bacilli: 3.25±3.05%
  Relative abundance, class Clostridia: 47.82 ± 20.66%
  Relative abundance, class Mollicutes: 0.0012±0.0031%
  Relative abundance, class Verrucomicrobiae: 2.51±3.67%
  Relative abundance, family Bacteroidales_S24-7_group: 19.34±6.97%
  Relative abundance, family Lachnospiraceae: 42.58±19.32%
  Relative abundance, family Lactobacillaceae: 3.21±2.99%
  Relative abundance, family Rikenellaceae: 3.19±2.16%
  Relative abundance, family Ruminococcaceae: 4.13±1.97%
  Relative abundance, family Verrucomicrobiaceae: 2.51±3.67%
  Relative abundance, genus Coprococcus_1: 0.11±0.068%
  Relative abundance, genus Family_XIII_AD3011_group: 0.021±0.014%
  Relative abundance, genus Lachnoclostridium: 2.42±2.02%
  Relative abundance, genus Lactobacillus: 3.21±2.99%
  Relative abundance, genus Papillibacter: 0.00062±0.0015%
  Relative abundance, genus Peptococcus: 0.0050±0.0056%
  Relative abundance, genus Prevotellaceae_NK3B31_group: 0.14±0.19%
  Relative abundance, genus Prevotellaceae_UCG-001: 1.07±1.13%
  Relative abundance, genus Rikenellaceae_RC9_gut_group: 0.042±0.084%
  Relative abundance, genus Ruminiclostridium: 0.079±0.076%
  Relative abundance, genus Ruminiclostridium_5: 0.27±0.23%
  Relative abundance, genus Ruminiclostridium_9: 0.41±0.20%
  Relative abundance, genus Ruminococcaceae_NK4A214_group: 0.020±0.023%
  Relative abundance, genus Ruminococcaceae_UCG-009: 0.012±0.015%
  Relative abundance, genus Ruminococcaceae_UCG-010: 0.0062±0.0061%
  Relative abundance, genus Ruminococcaceae_UCG-014: 0.022±0.030%
  Relative abundance, genus Ruminococcus_1: 0.071±0.15%
  Relative abundance, genus Streptococcus: 0.0025±0.0031%
  Relative abundance, genus Sutterella: 0.090±0.090%
  Relative abundance, genus [Eubacterium]_coprostanoligenes_group: 0.28±0.50%
  Relative abundance, genus [Eubacterium]_ventriosum_group: 0.022±0.041%
  Relative abundance, genus g__norank_f__Bacteroidales_S24-7_group: 19.34±6.97%
  Relative abundance, genus g__norank_f__Christensenellaceae: 0.0069±0.0087%
  Relative abundance, genus g__norank_f__Lachnospiraceae: 19.81±11.07%
  Relative abundance, genus g__norank_f__Ruminococcaceae: 0.16±0.13%
  Relative abundance, genus norank_o__Mollicutes_RF9: 0.0012±0.0031%
  Relative abundance, order Anaeroplasmatales: 0.00000%
  Relative abundance, order Bacillales: 0.00034±0.00084%
  Relative abundance, order Clostridiales: 47.86±20.61%
  Relative abundance, order Lactobacillales: 3.26±3.04%
  Relative abundance, order Mollicutes_RF9: 0.0014±0.0025%
  Relative abundance, order Verrucomicrobiales: 2.52±3.65%
  Relative abundance, phylum Deferribacteres: 0.25±0.23%
  Relative abundance, phylum Proteobacteria: 1.34±1.58%
  Relative abundance, phylum Saccharibacteria: 0.0069±0.0055%
  Relative abundance, phylum Tenericutes: 0.0013±0.0031%
At 1, 8 or 30 h after oral administration
  abundance of dominant phyla Firmicutes and Bacteroidetes: no significant differences
